From US20210228509A1 (Nacuity Pharmaceuticals, Inc., priority 2020, published 2021)

What was measured:
[1] = Topical ocular study in rabbit (NACA in aqueous humor, ocular tolerability); assay type: in vivo, Dutch Belted rabbits
Experimental: Example 2: Topical Ocular Study in Rabbit. An IACUC-approved study evaluated diNACA or NACA topical ocular dosing in rabbit. Ophthalmic formulations were developed containing either 1% diNACA or 1% NACA that were used for repeated topical ocular instillation to Dutch Belted rabbits. Animals were dosed four times a day at approximately 8:00 AM, 11 AM, 2 PM, and 4:00 PM on days 1-6, and once on Day 7 at approximately 8:00 AM, via bilateral topical administration. Ocular tolerability was assessed at baseline and prior to the first daily dose by means of scoring chemosis, discharge, and hyperemia (Draize scoring). Ocular tissue was harvested at necropsy (day 7). A qualified analytical LC-MS method was developed and used to quantitate NACA levels in aqueous humor (AH).

[2] = system: isolated rat lens; test: Inhibition of oxidation of isolated rat lenses (H2O2 cataract model); assay type: cell-based, Wistar rat; conditions: 10 mM, 24 hour incubation, then 0.5 mM H2O2 24 hours; compared to control (FIG. 1)
Experimental: Protocol for inhibition of oxidation of isolated rat lenses. Three-week old Wistar rat eyes were enucleated and lenses micro-dissected in Dulbecco's modified eagle's medium (low glucose) (DMEM-F12). Lenses were handled using only custom-made glass loops to avoid changes in transparency and placed in 1 mL DMEM with 1% penicillin/streptomycin/neomycin. Lenses were placed in a culture incubator set at 37° C./5% CO2 for one hour. Then lenses were imaged under darkfield and brightfield (grid) to ensure they are still transparent before adding vehicle (H20), 10 mM NACA (solution), or 10 mM diNACA (suspension). Lenses were then imaged at a 6-hour time period to ensure transparency was maintained, then incubated for another 18 hours, then imaged again (total 24 hour incubation). Media was collected and fresh media was added to the wells. 0.5 mM H2O2 (warmed at 37 deg C) was added and left for a further 24-hour incubation. Lenses were imaged, media collected, lenses weighed and flash frozen in tared vials and submitted for further analysis

[3] = system: isolated porcine lenses; test: Inhibition of oxidation of isolated porcine lenses (H2O2-induced cataract); assay type: cell-based, pigs; conditions: for inhibition of H2O2-induced cataract: 24 hours pre-incubation, then 600 μM H2O2 with glucose oxidase 6 hours (FIG. 2); for efficacy against H2O2-induced cataract relative to NAC: FIG. 2
Experimental: Protocol for inhibition of oxidation of isolated porcine lenses. Fresh eyes from pigs were obtained from Sierra For Medical Science. Lenses were first incubated in medium 199 (Sigma-Aldrich, St. Louis, Mo., USA) and 1% pig serum in a 12-well plate for two hours. At the end of the incubation, lenses were imaged under darkfield microscopy and only clear, transparent lenses were used for further experimentation. Lenses were then pre-incubated with NAC, NACA or diNACA for 24 hours. After pretreatment, lenses were transferred to media containing 600 μM H2O2 which was supplemented with glucose oxidase (GO) for maintaining a constant H2O2 level during further incubation for 6 hours [Wang G M, Raghavachari N, Lou M F. Relationship of protein-glutathione mixed disulfide and thioltransferase in H2O2-induced cataract in cultured pig lens. Exp Eye Res. 1997 May; 64(5):693-700. doi: 10.1006/exer.1996.0251. PMID: 9245898.]. At the end of the 6-hour incubation, lenses were imaged under darkfield microscopy

[4] = Oral dose study in rat (plasma levels); assay type: in vivo, male Sprague-Dawley rats; conditions: oral gavage diNACA 200 milligrams per kilogram (FIG. 5)
Experimental: DiNACA as a Prodrug to NACA and NAC. Example 1: Oral Dose Study in Rat. An IACUC (Institutional Animal Care and Use Committee)-approved study evaluated diNACA dosed via oral gavage in male Sprague-Dawley rats. diNACA was weighed into individual tubes. The tubes were capped and stored at room temperature overnight. Rats were weighed. An appropriate amount of phosphate buffered saline pH 7.0 was added to each tube to achieve the desired diNACA concentration as a suspension. Blood specimens were collected from the tail vein at specified time points and processed to produce plasma. Plasma specimens were analyzed using a validated liquid chromatographic mass spectrometric procedure (King B; Vance J; Wall G M; Shoup R. Quantitation of free and total N-acetylcysteine amide and its metabolite N-acetylcysteine in human plasma using derivatization and electrospray LC-MS/MS. J Chrom B 2019; 1109:25-36.).

[5] = Intravitreal dose study in rabbit (diNACA implant); assay type: in vivo, Female New Zealand White rabbits
Experimental: Example 3: Intravitreal Dose Study in Rabbit. An IACUC-approved study evaluated intravitreally (IVT) dosed diNACA in rabbit. A standard sterile intravitreal implant containing diNACA was prepared. Female New Zealand White rabbits were administered IVT with a di-NACA implant at a dose of 0.8 mg/eye. One group of animals received IVT placebo implants without any test article. Clinical ophthalmic examinations were performed at baseline and on Days 8 and 23 post-dose. General health observations were performed daily. Body weights were recorded at baseline and prior to termination. Animals were euthanized on Day 8, 15, or 23, and tissue was collected and submitted for bioanalysis. […] Observations of conjunctival bulging, discharge, and minimal hemorrhaging were determined to be related to the injection procedure and resolved in most eyes on the day after dosing.

[6] = system: human melanocytes; conditions: cited from earlier work
[7] = system: healthy human skin explants; conditions: healthy human skin explants exposed to UV-radiation; cited from earlier work
[8] = target: tyrosinase (Homo sapiens, UniProt P14679); conditions: cited from earlier work
tyrosinase, sequence (P14679 19-529, species assumed): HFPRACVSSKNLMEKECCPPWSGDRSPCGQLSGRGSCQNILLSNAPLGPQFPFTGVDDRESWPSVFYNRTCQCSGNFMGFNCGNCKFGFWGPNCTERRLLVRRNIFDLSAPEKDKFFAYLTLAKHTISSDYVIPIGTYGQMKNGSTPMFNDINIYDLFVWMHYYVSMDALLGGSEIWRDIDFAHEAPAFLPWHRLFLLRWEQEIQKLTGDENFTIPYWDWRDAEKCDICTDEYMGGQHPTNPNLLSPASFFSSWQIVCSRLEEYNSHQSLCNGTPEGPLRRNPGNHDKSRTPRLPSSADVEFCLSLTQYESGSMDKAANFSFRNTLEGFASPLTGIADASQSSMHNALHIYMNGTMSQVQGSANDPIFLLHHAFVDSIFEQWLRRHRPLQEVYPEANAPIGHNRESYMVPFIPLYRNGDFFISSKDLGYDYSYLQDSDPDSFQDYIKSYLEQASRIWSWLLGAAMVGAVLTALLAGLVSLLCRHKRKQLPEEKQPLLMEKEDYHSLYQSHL

[9] = system: alcohol-preferring rats; conditions: alcohol re-access after deprivation, 60 minutes; untreated 95 to 100 mg/dL; cited from earlier work
[10] = system: patients with presbyopia; conditions: first-in-human trial in presbyopes; cited from earlier work
[11] = system: human cadaver lenses; conditions: in vitro; cited from earlier work
[12] = system: rabbit eyes; conditions: in vivo; cited from earlier work
[13] = target: glutamate cysteine ligase (GCL, EC 6.3.2.2); conditions: read-out: Ki, nonallosteric competitive inhibition of GCL; cited from earlier work
[14] = system: RP patients; conditions: oral high dose NAC, cited from earlier work
[15] = humans, oral dose of 600 mg; cited from earlier work
[16] = system: corneal endothelial cells; conditions: cell culture; cited from earlier work
[17] = system: mouse model; conditions: cited from earlier work
[18] = system: human retinal pigment epithelial cells; conditions: cited from earlier work
[19] = system: mouse model of RP; conditions: compared with NAC; cited from earlier work
[20] = system: sodium selenite-induced cataracts; conditions: in vivo; cited from earlier work
[21] = system: J-buthionine-(S,R)-induced cataracts; conditions: in vivo; cited from earlier work
[22] = system: rats with unilateral 6-OHDA-induced nigral lesion; conditions: cited from earlier work
[23] = system: mice treated with 1-methyl-4-phenyl-1,2,3,6,-tetrahydropyridine; conditions: MPTP-treated mice; cited from earlier work
[24] = system: rats given chronic intrajugular rotenone; conditions: chronic intrajugular rotenone in rats; cited from earlier work
[25] = system: CD-1 mice; conditions: gp120+Tat+METH; cited from earlier work
[26] = system: olfactory bulbectomized rats; conditions: cited from earlier work
[27] = system: blood cells from β-thalassemic patients; conditions: cited from earlier work
[28] = system: β-thalassemic mice; conditions: intra-peritoneal injection, 150 mg/kg; cited from earlier work
[29] = system: RBCs; conditions: compared with NAC; cited from earlier work
[30] = vitreous humor (FIG. 6, FIG. 7)

CC(=O)NC(CSSCC(NC(C)=O)C(N)=O)C(N)=O [diNACA, (2R,2R′)-3,3′-disulfanediyl bis(2-acetamidopropanamide)]
penetration into the eye (aqueous humor) ([1]; topical ocular dosing): penetrates the eye
prodrug delivery of NACA to aqueous humor ([1]; topical ocular dosing of 1% diNACA): served as a prodrug to deliver NACA to the AH
inhibition of oxidative formation of cataract (opacity) [2]: inhibit oxidative formation of cataract (opacity)
inhibition of H2O2-induced cataract [3]: dose-dependently inhibit H2O2-induced cataract
efficacy against H2O2-induced cataract relative to NAC [3]: greater efficacy than NAC
bioavailability after oral administration [4]: bioavailable
levels in rat plasma after oral diNACA [4]: significant levels of diNACA, NACA and NAC
effects on general, non-ocular health or on body weights ([5]; IVT implant 0.8 mg/eye): No serious adverse effects
ocular findings on the day of dosing ([5]; IVT implant 0.8 mg/eye): minimal ocular findings
tolerability of IVT delivery ([5]; IVT implant 0.8 mg/eye, up to Day 23): generally well tolerated
elution into vitreous humor from IVT implant [5, 30]: eluted into the VH
metabolites in vitreous humor after diNACA IVT implant [5, 30]: presence of NACA and significant concentrations of NAC in the VH
melanin production [6]: inhibited melanin production
glutathione and NAC in skin [7]: increased glutathione and NAC
inhibition of tyrosinase activity [8]: significant inhibition of tyrosinase activity was observed in a dose responsive manner

CC(=O)Oc1ccccc1C(=O)O [aspirin]
reduction of relapse-drinking blood alcohol levels [9]: 60%

C[N+](C)(C)CCOC(=O)CCCC[C@@H]1CCSS1 [LACE, lipoic acid choline ester]
near visual acuity (DCNVA) improvement compared to placebo [10]: statistically significant
lens softening and deformability [11]: lens softening and an increase in lens deformability
lens softening and deformability [12]: lens softening and an increase in lens deformability

N[C@@H](CCC(=O)N[C@@H](CS)C(=O)NCC(=O)O)C(=O)O [GSH, c-L-glutamyl-L-cysteinyl-glycine]
Ki [13]: 2300 µM

CC(=O)NC(CS)C(=O)O (stereo not drawn) [NAC, 2-acetamido-3-sulfanylpropanoic acid]
inhibition of H2O2-induced cataract [3]: dose-dependently inhibit H2O2-induced cataract
improvement of visual acuity ([14]; RP patients (n=30), p<0.05): 2-5 letters
aqueous humor concentrations of NAC ([14]; RP patients): increased aqueous humor concentrations of NAC
reduction of relapse-drinking blood alcohol levels [9]: 60%
plasma half-life [15]: 2.5 h
time after administration at which no NAC is detectable [15]: 10 to 12 h
corneal endothelial survival [16]: increased corneal endothelial survival
corneal endothelial survival [17]: increased corneal endothelial survival

CC(=O)N[C@@H](CS)C(N)=O
inhibition of oxidative formation of cataract (opacity) [2]: inhibit oxidative formation of cataract (opacity)
inhibition of H2O2-induced cataract [3]: dose-dependently inhibit H2O2-induced cataract
efficacy against H2O2-induced cataract relative to NAC [3]: greater efficacy than NAC
melanin production [6]: inhibited melanin production
glutathione and NAC in skin [7]: increased glutathione and NAC
inhibition of tyrosinase activity [8]: significant inhibition of tyrosinase activity was observed in a dose responsive manner
protection against oxidative stress-induced cellular injury and death [18]: protected against oxidative stress-induced cellular injury and death
improvement of visual parameters [19]: to a greater extent than NAC
inhibition of sodium selenite-induced cataracts [20]: inhibit
inhibition of buthionine sulfoximine-induced cataracts [21]: inhibit
amphetamine-induced rotational behaviour [22]: suppressed amphetamine-induced rotational behaviour
reduction in striatal dopamine levels [23]: attenuated the reduction in striatal dopamine levels
dopaminergic neuronal loss [24]: reduced dopaminergic neuronal loss
rescue from oxidative stress (GSH, MDA) [25]: significantly rescued the animals from oxidative stress
cocaine-seeking behavior [26]: blocked cocaine-seeking behavior
reduction of oxidative stress markers in thalassemic cells relative to NAC ([27]; both in vitro and in vivo): superior to NAC
reactive oxygen species (ROS) of blood cells ([27]; in vitro treatment): reduced their reactive oxygen species (ROS)
reduced GSH content of RBC, platelets and PMN leukocytes ([27]; in vitro treatment): elevated the reduced GSH content
parameters of oxidative stress [28]: significantly reduced the parameters of oxidative stress
BuOOH-induced intracellular oxidation, thiol depletion and hemoglobin oxidation in RBCs [29]: superior to NAC
